The numbers were not newly measured in patent US20180009934A1, “HIGH […] […] RESINS” (priority 2016, published 2018), which cites them from elsewhere.

Structures are written as SMILES.

The conditions of the data set: monomer property, Table 1; species and route not given.

For the compound `C=Cc1ccc(C(C)(C)C)cc1` [Monomer 1, 4-tert butyl styrene], the “Toxicity LD50” value was over 2000 mg/kg.

Take `C=Cc1ccccc1` [STYRENE, styrene]: the “Toxicity LD50” value is over 2000 mg/kg.
